According to patent US20110245335A1, “NEW INHIBITORS FOR TREATING DISEASES ASSOCIATED WITH AN EXCESS TRANSPORT OF HYALURONAN” (priority 2008, published 2011):

Tests used:
[1] = pKa of the acidic moiety (stated in design rationale, no method); type: physicochemical; conditions: approximate values given in design rationale; no method described; read-out: pKa of the carboxylic moiety or its replacement
[2] = system: hyaluronan export; experiment: Assay for hyaluronan transport/export inhibitors in fibroblast cell culture (hyaluronan in culture medium by ELISA); type: cell-based; conditions: 2 days at 37° C.
Method: Trypsinised fibroblasts were suspended in Dulbeccós medium at 10^5 cells/ml and 100 μl aliquots were transferred to a 96 well microtiter plate. The first row received 200 μl of the suspension and 20 μl of the inhibitors of the invention dissolved in phosphate buffered saline at concentrations of 4 mM. A serial dilution of the inhibitors was established by transfer of 100 μl aliquots from the first row to the following rows. All experiments were performed in duplicates. […] The cells were incubated for 2 days at 37° C. and aliquots (5 and 20 μl) of the culture medium were used for measurement of the hyaluronan concentration in the cell culture medium by an ELISA [125]. Briefly, the wells of a 96 well Covalink-NH-microtiter plate (NUNC) were coated with 100 μl of a mixture of […] of hyaluronan (Healon®), 9.2 μg/ml of N-Hydroxysuccinimide-3-sulfonic acid and 615 μl/ml of 1-ethyl-3-(3-dimethylaminopropyl)-carbodiimide for 2 hours at room temperature and overnight at 4° C. The wells were washed three times with 2 M NaCl, 41 mM MgSO4, 0.05% Tween-20 in 50 mM phosphate buffered saline pH 7.2 (buffer A) and once with 2 M NaCl, 41 mM MgSO4, in phosphate buffered saline pH 7.2. Additional binding sites were blocked by incubation with 300 μl of 0.5% bovine serum albumin in phosphate buffered saline for 30 min at 37° C. Calibration of the assay was performed with standard concentrations of hyaluronan ranging from 15 ng/ml to 6000 ng/ml in equal volumes of culture medium as used for measurement of the cellular supernatants. A solution (50 μl) of the biotinylated hyaluronan binding fragment of aggrecan (Calbiochem) in 1.5 M NaCl, 0.3 M guanidinium hydrochloride, 0.08% bovine serum albumin 0.02% NaN3 25 mM phosphate buffer pH 7.0 was preincubated with 50 μl of the standard hyaluronan solutions or cellular supernatants for 1 hour at 37° C. The mixtures were transferred to the hyaluronan-coated test plate and incubated for 1 hour at 37° C. The microtiter plate was washed three times with buffer A and incubated with 100 μl/well of a solution of streptavidin-horseraddish-peroxidase (Amersham) at a dilution of 1:100 in phosphate buffered saline, 0.1% Tween-20 for 30 min at room temperature. The plate was washed five times with buffer A and the colour was developed by incubation with a 100 μl/well of a solution of 5 mg o-phenylenediamine and 5 μl 30% H2O2 in 10 ml of 0.1 M citrate-phosphate buffer pH 5.3 for 25 min at room temperature. The adsorption was read at 490 nm. The concentrations in the samples were calculated from a logarithmic regression curve of the hyaluronan standard solutions.

[3] = system: II-1α activated bovine cartilage explants; conditions: ref [14]; cited from earlier work

| SMILES | pKa [1] | IC50 ([2]; Fibroblast, 48 h) [µM] | further results |
| --- | --- | --- | --- |
| CC(=O)Nc1ccccc1Oc1cccc(O)c1C(=O)O [Compound 86] | ~3 |  | IC50 for hyaluronan export [2]: no inhibitory activity |
| CC(=O)Nc1c(O)cc(O)cc1Oc1ccc(NC/C=C/c2ccccc2)cc1C(=O)O [Compound 96] |  | 10 |  |
| CC(=O)Nc1c(O)cccc1Oc1ccccc1C(=O)NO [Compound 97] | ~8 |  | IC50 ([2]; listed as No. 97): 30 µM |
| CC(=O)Nc1c(O)cc(O)cc1Oc1cccc(N(C)C)c1C(=O)O [Compound 98] |  | 200 |  |
| CC(=O)Nc1c(O)cc(O)cc1Oc1ccc(Cl)cc1S(=O)(=O)O [Compound 99] | ~1 | ~80 |  |
| CCCOc1ccccc1-c1nc2nn[nH]c2c(=O)[nH]1 [zaprinast] |  |  | infiltration of degrading enzymes [3]: reduced; proteoglycan content and collagen degradation [3]: normalized |
